What all share (format): ADME, organism-based
The nature of data set [1]: MRT (0 to t) in Sprague-Dawley rat at 5 mg/kg, po measured upto 24 hrs by LC-MS/MS analysis. As to conditions: in vivo; call rule not given here.
Data set [2] is described as follows: AUC (0 to t) in Sprague-Dawley rat at 5 mg/kg, po measured upto 24 hrs by LC-MS/MS analysis. As to conditions: in vivo.
A short description of data set [3]: Tmax in Sprague-Dawley rat at 5 mg/kg, po measured upto 24 hrs by LC-MS/MS analysis. As to conditions: in vivo.
A short description of data set [4]: Drug distribution in Sprague-Dawley rat kidney at 5 mg/kg, po. The settings on record: in vivo.
The nature of data set [5]: Half life in Sprague-Dawley rat at 5 mg/kg, po measured upto 24 hrs by LC-MS/MS analysis. As to conditions: in vivo.
Data set [6] can be described thus: AUC (0 to infinity) in Sprague-Dawley rat at 1 mg/kg, iv measured upto 24 hrs by LC-MS/MS analysis. As to conditions: in vivo.
A short description of data set [7]: Apparent clearance during terminal phase in Sprague-Dawley rat at 5 mg/kg, po measured upto 24 hrs by LC-MS/MS analysis. As to conditions: in vivo.
The nature of data set [8]: Oral bioavailability in Sprague-Dawley rat at 5 mg/kg measured upto 24 hrs by LC-MS/MS analysis. As to conditions: in vivo.
Data set [9] is described as follows: Volume of distribution in Sprague-Dawley rat at 1 mg/kg, iv measured upto 24 hrs by LC-MS/MS analysis. As to conditions: in vivo, read-out: Vz.
Data set [10] in a line: MRT (0 to t) in Sprague-Dawley rat at 1 mg/kg, iv measured upto 24 hrs by LC-MS/MS analysis. As to conditions: in vivo.
Data set [11] can be described thus: AUC (0 to t) in Sprague-Dawley rat at 1 mg/kg, iv measured upto 24 hrs by LC-MS/MS analysis. As to conditions: in vivo.
A short description of data set [12]: MRT (0 to infinity) in Sprague-Dawley rat at 1 mg/kg, iv measured upto 24 hrs by LC-MS/MS analysis. As to conditions: in vivo.
Data set [13] is described as follows: Half life in Sprague-Dawley rat at 1 mg/kg, iv measured upto 24 hrs by LC-MS/MS analysis. As to conditions: in vivo.
Data set [14] can be described thus: Cmax in Sprague-Dawley rat at 1 mg/kg, iv measured upto 24 hrs by LC-MS/MS analysis. The settings on record: in vivo.
Data set [15] in a line: MRT (0 to infinity) in Sprague-Dawley rat at 5 mg/kg, po measured upto 24 hrs by LC-MS/MS analysis. The settings on record: in vivo.
Data set [16] is described as follows: Volume of distribution in Sprague-Dawley rat at 5 mg/kg, po measured upto 24 hrs by LC-MS/MS analysis. As to conditions: in vivo.
Data set [17] can be described thus: Cmax in Sprague-Dawley rat at 5 mg/kg, po measured upto 24 hrs by LC-MS/MS analysis. As to conditions: in vivo.
Data set [18] is described as follows: AUC (0 to infinity) in Sprague-Dawley rat at 5 mg/kg, po measured upto 24 hrs by LC-MS/MS analysis. The settings on record: in vivo.

For `COc1cc(C(CC(=O)O)c2cccc3c2CCN(C(=O)c2ccc(OC(C)C)cc2Cl)C3)cc2nnn(C)c12` (stereo not drawn), the MRT last (in general, a mean duration of stay, worked out from the concentration-time curve) at 24 h stood at 1.77 h in data set [1] and 0.39 h in [10]. The values for the exposure AUC(0-t) at 24 h in [2] and in data set [11] were 265 ng·h/mL and 267 ng·h/mL, respectively. Further, in data set [3], the time of peak concentration (Tmax) – broadly, the time from dosing to the highest level – came to 0.29 h. The Drug uptake entry in data set [4] is on record as “Active”. Moreover, the half-life (commonly how long it takes for the measured level to halve) in data set [5] was 1.36 h; in data set [13], 1.19 h. In addition, the AUC(0-inf) (in general, the area under the concentration-time curve extrapolated to infinity) in data set [6] was 268 ng·h/mL; in data set [18], 266 ng·h/mL. Also, the apparent clearance (CL/F) – broadly, clearance divided by bioavailability, as obtained after extravascular dosing – in data set [7] is 383 mL/min/kg. In data set [8], the bioavailability (commonly dose-corrected exposure relative to a reference, in per cent) was found to be 20%. In addition, the Vd in data set [9] stood at 6.49 L/kg. The mean residence time (MRT inf) (in general, the average time that molecules of a dose stay in the body) is 0.44 h in data set [12] and 1.85 h in data set [15]. Further, the Cmax – broadly, the highest concentration seen after dosing – was found to be 1640 ng/mL in [14] and 186 ng/mL in data set [17]. Further, in data set [16], the Vz was determined as 46.52 L/kg.

These data come from ChEMBL document CHEMBL6092171, “Discovery of Propionic Acid Derivatives with a 5-THIQ Core as Potent and Orally Bioavailable Keap1-Nrf2 Protein-Protein Interaction Inhibitors for Acute Kidney Injury” (J Med Chem, 2024).
